The values that follow come from PMC8151276, “An Integrated Approach toward NanoBRET Tracers for Analysis of GPCR Ligand Engagement” (Molecules, 2021).

The target of one assay is T1, P2RY4 (Homo sapiens, UniProt P51582).
T1 construct: purchased Promega (in-house HiBiT-GPCR construct library, NanoBRET)
The assay can be described thus: NanoBRET screen HiBiT-P2RY4 in HEK293. Type of assay: binding. The method, then: (§1) Each tracer candidate was screened across the entire library of HiBiT-GPCR constructs using NanoBRET as the detection modality. As depicted in Figure 4A, the specificity of interactions was evaluated through decrease in BRET due to competitive displacement of a bound tracer by excess parental compound. Each tracer was analyzed for binding to each HiBiT-GPCR fusion in the absence and in the presence of competing parental compound. Briefly, HEK293 cells were transfected with HiBiT-GPCR constructs diluted into promoterless DNA to reduce expression and maximize translocation to the cell surface. Each tracer candidate was then screened at concentrations of 1 μM and 0.1 μM across cells expressing these fusions. Cells were treated for 1.5 h with tracer either alone or in the presence of 20 μM competing parental compound (i.e., control). BRET was measured upon addition of purified LgBiT and subsequent complementation with HiBiT genetically fused to a GPCR. The specificity of interactions was assessed through a decrease in BRET signal due to competitive displacement of the bound tracer. To further gauge the robustness of these interactions, the fold response over the control (i.e., BRETtracer/BRETcontrol) was calculated. We chose a 1.5-fold response, which translates to ≥7-fold signal over noise as the minimal threshold required to score an interaction as positive. […]. Below we highlight the screening results obtained for our exemplary fluorescent tracers based on Clozapine, Amitriptyline and AZD1283.
(§2) HiBiT-GPCR DNA constructs were diluted in 10 mM Tris pH 8 to a final concentration of 0.01 μg/μL, arrayed in 96-well plates and stored at −20 °C. For transfection, HEK293 cells were suspended in Opti-MEM (without phenol red) supplemented with 2% fetal bovine serum (Seradigm) and 100 units/mL penicillin–streptomycin (Gibco) at a final concentration of 220,000 cells/mL and dispensed into white 96-well plates at 90 μL/well. Subsequent transfections and screens were carried using an Agilent Bravo Automated Liquid Handling Platform. First, the 96-well HiBiT DNA arrays were diluted 25-fold in Opti-MEM (without serum or phenol red) to a final concentration of 0.0004 μg/μL and 20 μL of the diluted DNAs were transferred into new 96-well plates. Next, promoterless carrier DNA (1 μg/μL) was diluted 25-fold (0.04 μg/μL) and then dispensed into the diluted arrays at 20 μL/well. Following brief mixing, Viafect transfection reagent (Promega) diluted 16-fold into Opti-MEM was dispensed into the plates at 40 μL/well. After mixing by pipetting, plates were incubated for 10 min on the pipetting station deck. The DNA-transfection reagent complexes were then added to plates containing cells. To facilitate the screen, 10 μL of DNA-transfection reagent complexes were added in duplicates to the top 4 and bottom 4 rows, resulting in two identical 48-well arrays per plate. Plates with transfected cells were incubated for 18–20 h at 37 °C/5% CO2. A screen of each tracer across the entire library using two different concentrations requires duplicate plates of transfected cells. Depending on the number of tracers being screened, transfections can be scaled up using the same ratios. The next day, for each tracer, four 20× screening solutions in tracer dilution buffer (Promega) were prepared: two duplicates at final concentration of 20 μM and two duplicates at a final concentration of 2 μM. A competing unmodified compound was added to one of each duplicate at a final concentration of 400 μM. The four resulting solutions were diluted 4-fold in Opti-MEM without serum or phenol red to generate 5× solutions (5 µM and 0.5 µM tracer +/− 100 μM competing compound). To screen the library, a BioTek MultiFlo FX liquid dispenser was used to dispense 22.5 µL of tracer solution to the top 4 rows and 22.5 µL tracer + competing compound solution to the 4 bottom rows. Plates were briefly mixed on an orbital shaker and incubated for 1.5 h at room temperature. […]
On the technique in general: BRET reads energy transfer from a luciferase to a nearby fluorophore.

A further assay concerns the target T2, HTR1E (Homo sapiens, UniProt P28566).
T2 construct: purchased Promega (in-house HiBiT-GPCR construct library, NanoBRET)
As to the kind of experiment: NanoBRET screen HiBiT-HTR1E in HEK293. Type of assay: binding. The protocol: as §1, §2

T1 sequence (P51582 whole entry): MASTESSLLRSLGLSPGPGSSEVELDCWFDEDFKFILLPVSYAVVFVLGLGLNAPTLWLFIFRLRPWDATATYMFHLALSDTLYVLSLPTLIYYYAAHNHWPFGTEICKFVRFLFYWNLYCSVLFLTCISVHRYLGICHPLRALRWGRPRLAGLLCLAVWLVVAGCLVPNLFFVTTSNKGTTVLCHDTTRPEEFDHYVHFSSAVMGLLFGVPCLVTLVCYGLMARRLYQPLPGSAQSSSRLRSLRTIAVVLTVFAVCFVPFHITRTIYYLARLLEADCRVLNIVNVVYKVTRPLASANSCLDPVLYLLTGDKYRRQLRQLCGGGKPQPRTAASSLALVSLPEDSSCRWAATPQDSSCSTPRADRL
T2 sequence (P28566 whole entry): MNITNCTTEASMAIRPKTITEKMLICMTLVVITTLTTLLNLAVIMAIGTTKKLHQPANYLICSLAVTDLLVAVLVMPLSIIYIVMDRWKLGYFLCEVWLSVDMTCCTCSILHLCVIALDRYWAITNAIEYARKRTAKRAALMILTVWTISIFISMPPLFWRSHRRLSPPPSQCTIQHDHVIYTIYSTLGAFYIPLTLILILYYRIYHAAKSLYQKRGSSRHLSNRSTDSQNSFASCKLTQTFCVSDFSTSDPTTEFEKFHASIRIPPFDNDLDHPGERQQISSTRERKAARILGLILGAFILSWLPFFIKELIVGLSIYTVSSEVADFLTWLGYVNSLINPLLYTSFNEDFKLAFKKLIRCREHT

Take `O=C(CCc1ccc2n1[B-](F)(F)[N+]1=C(c3ccc[nH]3)C=CC1=C2)NCc1ccc(C(=O)NCCOCCC(=O)N[C@@H]2CC[C@@]3(O)[C@H]4Cc5ccc(O)c6c5[C@@]3(CCN4CC3CC3)[C@H]2O6)cc1` [Naltrexone-3-NB590]: the “NanoBRET Fold Response” value was 1.32 at P2RY4 (P2RY4, tracer 0.1μM); 0.88 at P2RY4 (P2RY4, tracer 1μM); 0.72 on HTR1E (HTR1E, tracer 0.1μM); 0.90 on HTR1E (HTR1E, tracer 1μM).
On to `CN1CCN(C2=Nc3cc(Cl)ccc3N(CC(=O)NCCOCCOCCOCCOCCNC(=O)CCc3ccc4n3[B-](F)(F)[N+]3=C(c5ccc[nH]5)C=CC3=C4)c3ccccc32)CC1` [Clozapine-c-2-NB590], for which the “NanoBRET Fold Response” value on P2RY4 (P2RY4, 0.1μM tracer) is recorded as 1.00; at P2RY4 (P2RY4, 1μM tracer) it was 0.95; at HTR1E (HTR1E, 0.1μM tracer) it was 1.00; on HTR1E (HTR1E, 1μM tracer) it was 0.91.
Take `O=C(CCOCCOCCOCCOCCNC(=O)CCc1ccc2n1[B-](F)(F)[N+]1=C(c3ccc[nH]3)C=CC1=C2)NCCCN1CCN(C2=Nc3cc(Cl)ccc3Nc3ccccc32)CC1` [Clozapine-a-2-NB590]: the “NanoBRET Fold Response” value at P2RY4 (P2RY4, 0.1μM tracer) was 1.09; on P2RY4 (P2RY4, 1μM tracer), 0.96; at HTR1E (HTR1E, 0.1μM tracer), 1.01; at HTR1E (HTR1E, 1μM tracer), 0.96.
As for `CCOC(=O)c1cc(C#N)c(N2CCC(C(=O)NS(=O)(=O)Cc3ccccc3/C=C/C(=O)NCCNC(=O)CCc3ccc4n3[B-](F)(F)[N+]3=C(c5ccc[nH]5)C=CC3=C4)CC2)nc1C` [AZD1283-1-NB590], the “NanoBRET Fold Response” value on P2RY4 (P2RY4, 0.1μM) amounted to 1.05; at P2RY4 (P2RY4, 1μM) it was 1.12; at HTR1E (HTR1E, 0.1μM), 0.94; at HTR1E (HTR1E, 1μM), 0.96.
Regarding `COc1ccc2[nH]c(-c3ccc(CNC(=O)CCOCCOCCOCCOCCNC(=O)CCc4ccc5n4[B-](F)(F)[N+]4=C(c6ccc[nH]6)C=CC4=C5)cc3)c(CCNC(C)=O)c2n1` [AzomelatoninICO9-2-NB590], the “NanoBRET Fold Response” value on P2RY4 (0.1μM tracer) amounted to 1.03; on P2RY4 (1μM tracer) it was 1.13; at HTR1E (0.1μM tracer) it was 0.97; on HTR1E (1μM tracer), 1.18.
For the compound `CCCn1c(=O)c2[nH]c(-c3ccc(OCC(=O)NCCNC(=O)CCOCCNC(=O)c4ccc(CNC(=O)CCc5ccc6n5[B-](F)(F)[N+]5=C(c7ccc[nH]7)C=CC5=C6)cc4)cc3)nc2n(CCC)c1=O` [XAC-3-NB590], the “NanoBRET Fold Response” value was determined as 1.07 at P2RY4 (P2RY4, tracer 0.1μM); 0.79 on P2RY4 (P2RY4, tracer 1μM); 1.08 at HTR1E (HTR1E, tracer 0.1μM); 0.78 on HTR1E (HTR1E, tracer 1μM).
As for `COc1ccccc1N1CCN(CCCCN2C(=O)c3ccc(CNC(=O)CCOCCNC(=O)c4ccc(CNC(=O)CCc5ccc6n5[B-](F)(F)[N+]5=C(c7ccc[nH]7)C=CC5=C6)cc4)cc3C2=O)CC1` [NAN-190-3-NB590], the “NanoBRET Fold Response” value is given as 0.86 on P2RY4 (P2RY4, tracer 0.1μM); 0.82 at P2RY4 (P2RY4, tracer 1μM); 0.84 at HTR1E (HTR1E, tracer 0.1μM); 0.91 on HTR1E (HTR1E, tracer 1μM).
Regarding `CN(CCC=C1c2ccccc2CCc2ccccc21)C(=O)CCOCCOCCOCCOCCNC(=O)CCc1ccc2n1[B-](F)(F)[N+]1=C(c3ccc[nH]3)C=CC1=C2` [Amitriptyline-e-2-NB590], the “NanoBRET Fold Response” value was found to be 1.04 on P2RY4 (tracer at 1μM) and 0.96 on HTR1E (tracer at 1μM).
As for `O=C(CCc1ccc2n1[B-](F)(F)[N+]1=C(c3ccc[nH]3)C=CC1=C2)NCc1ccc(C(=O)NCCOCCOCCNCC(O)COc2cccc3ccccc23)cc1` (stereo not drawn) [Propranolol-3-NB590], the “NanoBRET Fold Response” value was 1.03 at P2RY4 (P2RY4, 0.1μM); 0.92 at P2RY4 (P2RY4, 1μM); 1.00 on HTR1E (HTR1E, 0.1μM); 0.98 at HTR1E (HTR1E, 1μM).
As to `COc1ccc2c(n1)c(CCNC(C)=O)cn2CCNC(=O)CCc1ccc2n1[B-](F)(F)[N+]1=C(c3ccc[nH]3)C=CC1=C2` [Azamelatonin-1-NB590], the “NanoBRET Fold Response” value at P2RY4 (0.1μM tracer) turned out to be 1.10; at P2RY4 (1μM tracer), 1.10; at HTR1E (0.1μM tracer) it was 0.99; at HTR1E (1μM tracer), 0.99.
`O=C(CCOCCOCCOCCOCCNC(=O)CCc1ccc2n1[B-](F)(F)[N+]1=C(c3ccc[nH]3)C=CC1=C2)NCCCN1CCN(C2=Nc3ccccc3Oc3ccc(Cl)cc32)CC1` [Loxapine-a-2-NB590]: the “NanoBRET Fold Response” value was found to be 0.95 at P2RY4 (P2RY4, tracer 0.1μM); 1.28 at P2RY4 (P2RY4, tracer 1μM); 1.01 on HTR1E (HTR1E, tracer 0.1μM); 0.96 at HTR1E (HTR1E, tracer 1μM).
As for `COc1ccccc1N1CCN(CCCCN2C(=O)c3ccc(CNC(=O)CCOCCOCCOCCOCCNC(=O)CCc4ccc5n4[B-](F)(F)[N+]4=C(c6ccc[nH]6)C=CC4=C5)cc3C2=O)CC1` [NAN-190-2-NB590], the “NanoBRET Fold Response” value on P2RY4 (P2RY4, tracer 1μM) stood at 1.18; on HTR1E (HTR1E, tracer 0.1μM) it was 0.97.
For `CC(C)N(CC[C@H](c1ccccc1)c1cc(CCNC(=O)c2ccc(CNC(=O)CCc3ccc4n3[B-](F)(F)[N+]3=C(c5ccc[nH]5)C=CC3=C4)cc2)ccc1O)C(C)C` [Tolterodine-BZ-NB590], the “NanoBRET Fold Response” value at P2RY4 (P2RY4, tracer 0.1μM) came to 0.97; at P2RY4 (P2RY4, tracer 1μM) it was 1.08; at HTR1E (HTR1E, tracer 0.1μM) it was 1.13; on HTR1E (HTR1E, tracer 1μM) it was 1.13.
Regarding `O=C(CCc1ccc2n1[B-](F)(F)[N+]1=C(c3ccc[nH]3)C=CC1=C2)NCCOCCOCCNC(=O)OCCOCCN1CCN(C2=Nc3ccccc3Sc3ccccc32)CC1` [Quetiapine-a-2-NB590], the “NanoBRET Fold Response” value on P2RY4 (P2RY4, tracer 0.1μM) stood at 1.05; at P2RY4 (P2RY4, tracer 1μM), 0.84; on HTR1E (HTR1E, tracer 0.1μM), 0.96; on HTR1E (HTR1E, tracer 1μM) it was 0.99.
`CN1CCN(C2=Nc3cc(Cl)ccc3Nc3ccc(CNC(=O)CCOCCOCCOCCOCCNC(=O)CCc4ccc5n4[B-](F)(F)[N+]4=C(c6ccc[nH]6)C=CC4=C5)cc32)CC1` [Clozapine-b-2-NB590]: the “NanoBRET Fold Response” value on P2RY4 (P2RY4, 0.1μM tracer) turned out to be 0.97; on P2RY4 (P2RY4, 1μM tracer), 0.97; on HTR1E (HTR1E, 0.1μM tracer), 0.99; at HTR1E (HTR1E, 1μM tracer), 0.97.
As for `CC(C)N(CC[C@H](c1ccccc1)c1cc(CCNC(=O)CCOCCOCCOCCOCCNC(=O)CCc2ccc3n2[B-](F)(F)[N+]2=C(c4ccc[nH]4)C=CC2=C3)ccc1O)C(C)C` [Tolterodine-2-NB590], the “NanoBRET Fold Response” value at P2RY4 (P2RY4, tracer 0.1μM) is 1.08; on P2RY4 (P2RY4, tracer 1μM) it was 0.94; on HTR1E (HTR1E, tracer 0.1μM), 1.27; on HTR1E (HTR1E, tracer 1μM), 1.10.
`CN(C)CCC=C1c2ccccc2CCc2ccc(C(=O)NCCNC(=O)CCOCCOCCOCCOCCNC(=O)CCc3ccc4n3[B-](F)(F)[N+]3=C(c5ccc[nH]5)C=CC3=C4)cc21` [Amitriptyline-a-2-NB590]: the “NanoBRET Fold Response” value is on record as 1.01 at P2RY4 (tracer at 0.1μM), 1.02 at P2RY4 (tracer at 1μM), 1.04 at HTR1E (tracer at 0.1μM) and 1.00 at HTR1E (tracer at 1μM).
For the compound `Cc1cc2c(s1)Nc1ccccc1N=C2N1CCN(CCCNC(=O)CCOCCOCCOCCOCCNC(=O)CCc2ccc3n2[B-](F)(F)[N+]2=C(c4ccc[nH]4)C=CC2=C3)CC1` [Olanzapine-a-2-NB590], the “NanoBRET Fold Response” value worked out at 1.07 at P2RY4 (P2RY4, tracer 0.1μM); 0.95 at P2RY4 (P2RY4, tracer 1μM); 0.99 on HTR1E (HTR1E, tracer 0.1μM); 1.09 on HTR1E (HTR1E, tracer 1μM).
For the compound `N#CN=C(NCCCOc1cccc(CN2CCCCC2)c1)NCCNC(=O)CCOCCOCCOCCOCCNC(=O)CCc1ccc2n1[B-](F)(F)[N+]1=C(c3ccc[nH]3)C=CC1=C2` [Aminopotentidine-2-NB590], the “NanoBRET Fold Response” value is 1.09 at P2RY4 (P2RY4, tracer 0.1μM); 1.07 on P2RY4 (P2RY4, tracer 1μM); 0.93 at HTR1E (HTR1E, tracer 0.1μM); 1.06 on HTR1E (HTR1E, tracer 1μM).
